According to patent publication EP3057951B1, “METHYLENE LINKED QUINOLINYL MODULATORS OF ROR-GAMMA-T” (Janssen Pharmaceutica NV, priority 2013, dated 2015):
Structures can show the parent of a compound that is named as a salt. Where two headings read alike, the source gives them in different places.

Assays:
[1] = target: T1, wild type human RORγt ligand binding domain (RORyt LBD) (Homo sapiens, UniProt P51449); experiment: RORγt ThermoFluor assay (thermal shift, binding affinity KD)
T1 construct: His-tag (N); TurboTEV protease cleavage site (ENLYFQG) (N); made in house; host or cells: E. coli (pHIS1, modified pET vector)
T1 sequence (P51449 258-518): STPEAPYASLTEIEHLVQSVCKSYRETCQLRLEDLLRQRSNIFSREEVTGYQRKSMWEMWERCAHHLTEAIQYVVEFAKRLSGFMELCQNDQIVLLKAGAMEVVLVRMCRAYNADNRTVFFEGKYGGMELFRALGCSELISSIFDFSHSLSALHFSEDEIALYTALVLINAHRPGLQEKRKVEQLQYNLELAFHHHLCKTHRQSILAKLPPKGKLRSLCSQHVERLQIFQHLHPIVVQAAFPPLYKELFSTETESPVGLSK

[2] = target: T2, wild type human RORγt LBD (Homo sapiens, UniProt P51449); experiment: RORγt (LBD) Reporter Assay (GAL4-luciferase, HEK293T cells); type: cell-based; details: for RORγt (LBD) Reporter Assay, % inhibition @ 6 µM: 6 µM compound concentration; for inhibition at 6 µM: HEK-293T, read-out: RORγt (LBD) Reporter Assay, % inhibition @ 6 µM, 6 µM compound concentration
T2 construct: expressed in transfected cells; host or cells: HEK293T
T2 sequence (P51449 258-518): T1 sequence (P51449 258-518)

[3] = HEK293T cells, value after the comma with ∼, > or < could not be included in the average

Row | Compound | Kd [1] [nM] | RORγt (LBD) Reporter Assay, % inhibition @ 6 µM [2] [%] | IC50 [2, 3] [nM] | RORγt (LBD) Reporter Assay, % inhibition @ 6 µM ([2]; HEK293T cells) [%] | IC50 ([2]; HEK293T cells) [nM] | inhibition at 6 µM ([2]; HEK293T cells) [%] | inhibition at 6 µM [2] [%]
1 | Cn1cncc1C(O)(c1ccc(C(F)(F)F)nc1)c1ccc2nc(C(F)(F)F)c(Cc3ccccc3)c(C#N)c2c1 (single isomer, unassigned) [Example 108b, 3-Benzyl-6-(hydroxy(1-methyl-1H-imidazol-5-yl)(6-(trifluoromethyl)pyridin-3-yl)methyl)-2-(trifluoromethyl)quinoline-4-carbonitrile] | 1.2 | 55 | 1100 |  |  |  | 
2 | COc1nc2ccc(C(O)(c3cnnn3C)C3CNC3)cc2c(Cl)c1Cc1ccc(C(F)(F)F)cc1 (stereo not drawn) [Example 124, Azetidin-3-yl(4-chloro-2-methoxy-3-(4-(trifluoromethyl)benzyl)quinolin-6-yl)(1-methyl-1H-1,2,3-triazol-5-yl)methanol] | 240 |  |  |  | 670 | 93 | 
3 | Cn1cncc1C(O)(c1ccc(C(F)(F)F)nc1)c1ccc2nc(C#N)c(Cc3ccc(F)cc3)c(C#N)c2c1 (single isomer, unassigned) [Example 53c, 3-(4-Fluorobenzyl)-6-(hydroxy(1-methyl-1H-imidazol-5-yl)(6-(trifluoromethyl)pyridin-3-yl)methyl)quinoline-2,4-dicarbonitrile] | 48 | 74 | 680 |  |  |  | 
4 | COc1nc2ccc(C(O)(c3ccc(F)cc3)C3CCN(C(C)=O)CC3)cc2c(Cl)c1Cc1ccc(-n2cccn2)cc1 (single isomer, unassigned) [Example 157b, 1-(4-((3-(4-(1H-Pyrazol-1-yl)benzyl)4-chloro-2-methoxyquinolin-6-yl)(4-fluorophenyl)(hydroxy)methyl)piperidin-1-yl)ethanone] | 1.7 |  |  |  | 34 | 102 | 
5 | COc1c(Cc2ccccc2)c(C(F)(F)F)nc2ccc(C(O)(c3ccc(C(F)(F)F)nc3)c3cncn3C)cc12 (single isomer, unassigned) [Example 106c, (3-Benzyl-4-methoxy-2-(trifluoromethyl)quinolin-6-yl)(1-methyl-1H-imidazol-5-yl)(6-(trifluoromethyl)pyridin-3-yl)methanol] | 18 | 65 | ~5000 |  |  |  | 
6 | Cn1cncc1C(O)(c1ccc2nc(C(F)(F)F)c(Cc3ccccc3)c(Cl)c2c1)c1ccccn1 (stereo not drawn) [Example 97, (3-Benzyl-4-chloro-2-(trifluoromethyl)quinolin-6-yl)(1-methyl-1H-imidazol-5-yl)(pyridin-2-yl)methanol•TFA] | 67 |  | 200 |  |  |  | 96
7 | COc1nc2ccc(C(O)(c3cnnn3C)c3cnc(C)n3C)cc2c(Cl)c1Cc1ccc(C(F)(F)F)nc1 (single isomer, unassigned) [Example 43b, (4-Chloro-2-methoxy-3-((6-(trifluoromethyl)pyridin-3-yl)methyl)quinolin-6-yl)(1,2-dimethyl-1H-imidazol-5-yl)(1-methyl-1H-1,2,3-triazol-5-yl)methanol] | 0.49 |  | 10 |  |  |  | 98
8 | COc1nc2ccc(C(O)(c3sc(C)nc3C)c3cnnn3C)cc2cc1Cc1ccc(C(F)(F)F)cc1 (single isomer, unassigned) [Example 92c, (2,4-Dimethylthiazol-5-yl)(2-methoxy-3-(4-(trifluoromethyl)benzyl)quinolin-6-yl)(1-methyl-1H-1,2,3-triazol-5-yl)methanol] | 19 | 96 | 30 |  |  |  | 
9 | COc1nc2ccc(C(O)(c3ccc(Cl)cc3)c3cncn3C)cc2c(C#N)c1Cc1ccc(C(F)(F)F)cc1 (single isomer, unassigned) [Example 55b, 6-((4-Chlorophenyl)(hydroxy)(1-methyl-1H-imidazol-5-yl)methyl)-2-methoxy-3-(4-(trifluoromethyl)benzyl)quinoline-4-carbonitrile] | 530 |  | 500 |  |  |  | 96
10 | COc1nc2ccc(C(O)(c3cccnc3)c3ccc(Cl)c(Cl)c3)cc2c(Cl)c1Cc1ccc(-n2cccn2)cc1 (stereo not drawn) [Example 161a, (3-(4-(1H-Pyrazol-1-yl)benzyl)-4-chloro-2-methoxyquinolin-6-yl)(3,4-dichlorophenyl)(pyridin-3-yl)methanol] | 15 |  |  |  | 57 | 96 | 
11 | Cn1cncc1C(O)(c1ccc2nc(C(F)(F)F)c(Cc3ccccc3)c(C#N)c2c1)c1ccccn1 (single isomer, unassigned) [Example 99c, 3-Benzyl-6-(hydroxy(1-methyl-1H-imidazol-5-yl)(pyridin-2-yl)methyl)-2-(trifluoromethyl)quinoline-4-carbonitrile] | 12 | 97 | 20 |  |  |  | 

The remaining lines, values ahead:

Row | Kd [1] [nM] | RORγt (LBD) Reporter Assay, % inhibition @ 6 µM [2] [%] | IC50 [2, 3] [nM] | RORγt (LBD) Reporter Assay, % inhibition @ 6 µM ([2]; HEK293T cells) [%] | IC50 ([2]; HEK293T cells) [nM] | inhibition at 6 µM ([2]; HEK293T cells) [%] | inhibition at 6 µM [2] [%] | Compound
12 | 110 | 94 | 670 |  |  |  |  | COc1c(Cc2ccccc2)c(C(F)(F)F)nc2ccc(C(O)(c3ccc(C(F)(F)F)nc3)c3cncn3C)cc12 (single isomer, unassigned) [Example 106b, (3-Benzyl-4-methoxy-2-(trifluoromethyl)quinolin-6-yl)(1-methyl-1H-imidazol-5-yl)(6-(trifluoromethyl)pyridin-3-yl)methanol]
13 | 50 | 91 | 88 |  |  |  |  | COc1nc2ccc(C(O)(c3ccccc3)C3CCN(C(C)=O)CC3)cc2c(Cl)c1Cc1ccc(-n2cncn2)cc1 (single isomer, unassigned) [Example 18c, 1-(4-((3-(4-(1H-1,2,4-Triazol-1-yl)benzyl)-4-chloro-2-methoxyquinolin-6-yl)(hydroxy)(phenyl)methyl)piperidin-1-yl)ethanone]
14 | 0.39 |  |  | 98 | ~6 |  |  | Cc1ccc(C(O)(c2ccc3nc(N4CC(F)(F)C4)c(Cc4ccc(C(F)(F)F)cc4)c(Cl)c3c2)c2cnnn2C)c(C)n1 (single isomer, unassigned) [Example 148c, {4-Chloro-2-(3,3-difluoroazetidin-1-yl)-3-[4-(trifluoromethyl)benzyl]quinolin-6-yl}(2,6-dimethylpyridin-3-yl)(1-methyl-1H-1,2,3-triazol-5-yl)methanol]
15 | 56 |  |  |  | 460 | 97 |  | Cc1ccc(C(O)(c2ccc3nc(N4CC(F)(F)C4)c(Cc4ccc(C(F)(F)F)cc4)c(Cl)c3c2)c2cnnn2C)c(C)n1 (single isomer, unassigned) [Example 148b, {4-Chloro-2-(3,3-difluoroazetidin-1-yl)-3-[4-(trifluoromethyl)benzyl]quinolin-6-yl}(2,6-dimethylpyridin-3-yl)(1-methyl-1H-1,2,3-triazol-5-yl)methanol]
16 | 2.5 |  |  | 99 | 34 |  |  | Cc1ccc(C(O)(c2ccc3nc(Cl)c(Cc4ccc(C(F)(F)F)cc4)c(NC4CC4)c3c2)c2cnnn2C)c(C)n1 (single isomer, unassigned) [Example 144c, {2-Chloro-4-(cyclopropylamino)-3-[4-(trifluoromethyl)benzyl]quinolin-6-yl}(2,6-dimethylpyridin-3-yl)(1-methyl-1H-1,2,3-triazol-5-yl)methanol]
17 | 580 |  | 760 |  |  |  | 92 | CC(=O)N1CCC(C(O)(c2ccc(C(F)(F)F)nc2)c2cc(C)c3nc(C#N)c(Cc4ccc(-n5cccn5)cc4)c(C#N)c3c2)CC1 (single isomer, unassigned) [Example 79b, 3-(4-(1H-Pyrazol-1-yl)benzyl)-6-((1-acetylpiperidin-4-yl)(hydroxy)(6(trifluoromethyl)pyridin-3-yl)methyl)-8-methylquinoline-2,4-dicarbonitrile]
18 | 0.29 |  | 4.8 |  |  |  | 98 | COc1nc2ccc(C(O)(c3cncn3C)c3cnnn3C)cc2c(Cl)c1Cc1ccc(C(F)(F)F)cc1 (racemic) [Example 89a, (4-Chloro-2-methoxy-3-(4-(trifluoromethyl)benzyl)quinolin-6-yl)(1-methyl-1H-1,2,3-triazol-5-yl)(1-methyl-1H-imidazol-5-yl)methanol]
19 | 0.08 | 98 | 8.7 |  |  |  |  | COc1nc2ccc(C(O)(c3sc(C)nc3C)c3cnnn3C)cc2c(Cl)c1Cc1ccc(-n2cccn2)cc1 (single isomer, unassigned) [Example 21c, (3-(4-(1H-Pyrazol-1-yl)benzyl)-4-chloro-2-methoxyquinolin-6-yl)(2,4-dimethylthiazol-5-yl)(1-methyl-1H-1,2,3-triazol-5-yl)methanol]
20 | 10 |  | ~4000 |  |  |  | 82 | COc1nc2ccc(C(O)(c3ccccc3)C3CCN(C(C)=O)CC3)cc2c(Cl)c1Cc1ccc(F)cc1 (stereo not drawn) [Example 50, 1-(4-((4-Chloro-3-(4-fluorobenzyl)-2-methoxyquinolin-6-yl)(hydroxy)(phenyl)methyl)piperidin-1-yl)ethanone]
21 | 55 |  | 1.9 |  |  |  | 100 | COc1nc2ccc(C(O)(c3ccc(C#N)cc3)c3cncn3C)cc2c(Cl)c1Cc1ccc(C(F)(F)F)nc1 (stereo not drawn) [Example 38a, 4-((4-Chloro-2-methoxy-3-((6-(trifluoromethyl)pyridin-3-yl)methyl)quinolin-6-yl)(hydroxy)(1-methyl-1H-imidazol-5-yl)methyl)benzonitrile]
